Values after ≈ are worked out from the molar mass of the structure shown.
Experiments:
[1] = Solubility of NRC-AN-019 (aqueous at physiological pH; organic solvents); format: physicochemical
Excerpt: Its molecular formula is C25H17F6N5O and its relative molecular mass is 517.44.
It is soluble in dimethylformamide, dimethylacetamide and dimethyl sulfoxide. NRC-AN-019 presents specific difficulties in relation to solubility and its formulation development. Oral absorption of such insoluble drugs is the key point to be considered in solving the problem of low bioavailability.

[2] = Oral gavage pharmacokinetics (suspension) in albino wistar rats; conditions: rat, in vivo, oral gavage 40 mg/kg·bw
Excerpt: FIG. 1 illustrates the area under the curve in albino wistar rats after oral administration of NRC-AN-019 “as is” and different solid dispersions in accordance with the invention.
The study discloses better bioavailability characteristics of NRC-AN-019 in the formulation of the present invention than NRC-AN-019 as such. Thus, the optimum bioavailability can be achieved for the therapeutic effectiveness of NRC-AN-019. The maximum concentration and AUC of the formulation of the present invention are substantially higher than that of NRC-AN-019 “as is” due to better absorption characteristics of the solid dispersion of NRC-AN-019 in amorphous or, partially amorphous or, crystalline form. The details of the process of the invention are provided in the examples given below which is provided by way of illustration only and therefore should not be construed to limit the scope of the invention. The preparation of the present invention that can be administered by the oral route is carried out according to the following process.
NRC-AN-019 active pharmaceutical ingredient (API) and the compositions of the present invention were administered through oral gavage at 40 mg/kg·bw in the form of a suspension in albino wistar rats. […] The Cmax and AUC0-∞ for the compositions of the present invention vary between 900 ng/mL to 2000 ng/mL and 7500 ng·hr/mL to 16000 ng·hr/mL respectively.

Cc1ccc(NC(=O)c2cc(C(F)(F)F)cc(C(F)(F)F)c2)cc1Nc1nccc(-c2cccnc2)n1 [NRC-AN-019, (3,5-Bis trifluoromethyl)-N-[4-methyl-3-(4-pyridin-3-yl-pyrimidin-2-yl-amino)phenyl]benzamide]
solubility ([1]; aqueous medium at pH 1.2 (buffer not named), pH 1.2, simulated gastric fluid): 6.6 µg/mL (≈ 12.8 µM)
solubility ([1]; aqueous medium at pH 2.0 (buffer not named), pH 2, simulated gastric fluid): 0.2 µg/mL (≈ 0.387 µM)
solubility in organic solvents ([1]; dimethylformamide, dimethylacetamide and dimethyl sulfoxide): soluble
aqueous solubility ([1]; pH 3.0, 4.0, 5.0, 6.0, 6.8, 7.0, 7.5, 8.0 and water): below detection limit
solubility in water ([1]; water): practically insoluble
Cmax [2]: 33.7 ng/mL
AUC(0-inf) ([2]; read-out: average AUC0-∞): 453 ng·h/mL
